Test results: PubChem BioAssay (NCI)
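These data come from cells grown in 96-well plates and exposed to compound for 48 hours at five concentrations. TGI: total growth inhibition.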

How the values were obtained:
Test in all cases: NCI-60 cell line screen, 48 h
[1] = test system: DU-145 prostate
[2] = test system: SW-620 colon
[3] = test system: NCI-H460 lung
[4] = test system: IGROV1 ovarian
[5] = test system: SK-MEL-5 melanoma
[6] = test system: U251 CNS
[7] = test system: SF-539 CNS
[8] = test system: MDA-MB-435
[9] = test system: UO-31 renal
[10] = test system: MCF7 breast
[11] = test system: MDA-N
[12] = test system: ACHN renal
[13] = test system: UACC-257 melanoma
[14] = test system: HT29 colon
[15] = test system: MOLT-4 leukemia
[16] = test system: NCI-H522 lung
[17] = test system: MALME-3M melanoma
[18] = test system: HS 578T breast
[19] = test system: A498 renal

| SMILES | TGI [1] [µM] | TGI [2] [µM] | TGI [3] [µM] | TGI [4] [µM] | TGI [5] [µM] | TGI [6] [µM] | TGI [7] [µM] | TGI [8] [µM] | TGI [9] [µM] | TGI [10] [µM] | TGI [11] [µM] | TGI [12] [µM] | TGI [13] [µM] | TGI [14] [µM] | TGI [15] [µM] | TGI [16] [µM] | TGI [17] [µM] | TGI [18] [µM] | TGI [19] [µM] |
| --- | --- | --- | --- | --- | --- | --- | --- | --- | --- | --- | --- | --- | --- | --- | --- | --- | --- | --- | --- |
| CCOC(=O)Cc1csc2[n+]1C(=O)/C(=C/c1cccc(OC)c1O)S2 | > 100 | > 100 | > 100 | > 100 | > 100 | > 100 | > 100 | 50.5 | > 100 | > 100 | > 100 | > 100 | > 100 | > 100 | > 100 | – | – | – | – |
| O=C(NNC(c1ccccc1)C(F)(F)F)c1ccncc1 (configuration not stated) | > 100 | > 100 | > 100 | > 100 | > 100 | > 100 | > 100 | > 100 | – | > 100 | – | > 100 | > 100 | > 100 | > 100 | > 100 | > 100 | – | – |
| C/C=C\C(CC(=O)NCCC1CN(S(=O)(=O)C(F)(F)F)c2ccccc21)CC(=O)OC (configuration not stated) | > 100 | > 100 | > 100 | > 100 | 41.4 | > 100 | – | – | > 100 | > 100 | > 100 | > 100 | > 100 | 51.3 | > 100 | 52 | 45.9 | 72.3 | > 100 |
| CCN(CC)CCCC(C)Nc1ccnc2ccc3nn(C)nc3c12 (configuration not stated) | – | 75.7 | > 100 | > 100 | > 100 | > 100 | > 100 | – | > 100 | – | – | > 100 | > 100 | > 100 | > 100 | – | > 100 | – | > 100 |
| NC(=O)NC(=O)c1cccc(CNc2ccc(C(=O)N[C@@H](CCC(=O)O)C(=O)O)cc2)n1 | > 100 | > 100 | > 100 | > 100 | > 100 | > 100 | > 100 | > 100 | > 100 | > 100 | > 100 | > 100 | > 100 | > 100 | > 100 | > 100 | – | > 100 | – |
| O=C(Cc1csc(N=Nc2c(O)[nH]c3ccccc23)n1)Nc1ccccc1 | 91.5 | > 100 | > 100 | 30.5 | > 100 | 55.2 | 79.4 | > 100 | 93.3 | > 100 | – | 54.4 | 87.7 | 59 | > 100 | – | – | – | > 100 |
| COc1cc(/C=C2/SC(c3ccccc3)N(c3ccccc3)C2=O)cc(OC)c1OC (configuration not stated) | > 100 | > 100 | > 100 | – | > 100 | > 100 | > 100 | > 100 | > 100 | > 100 | – | > 100 | > 100 | – | > 100 | > 100 | > 100 | > 100 | > 100 |
| CCCCc1ccc(Nc2nc(=S)c3[nH]cnc3[nH]2)cc1 | > 100 | 60.9 | > 100 | 40.4 | 25.5 | > 100 | 48 | 48.1 | > 100 | – | – | 59.2 | 55.2 | 22 | 22.2 | 22.8 | 37 | 49.3 | 31.7 |
| Cc1nc(C(N)=S)sc1C(/C=C/c1ccc(Cl)c(Cl)c1)=N/NC(C)(C)C | > 100 | > 100 | > 100 | > 100 | > 100 | > 100 | > 100 | > 100 | > 100 | > 100 | > 100 | > 100 | > 100 | > 100 | 80.5 | > 100 | – | > 100 | – |
| COc1cc(NC(C)=O)ccc1C(=O)NN1C(=O)C(Cl)C1c1ccco1 (configuration not stated) | > 100 | > 100 | – | > 100 | > 100 | – | > 100 | > 100 | > 100 | > 100 | > 100 | > 100 | – | > 100 | > 100 | > 100 | > 100 | – | > 100 |
| Cc1c2c(n(CCc3ccccc3)c1C)N(C)N=C(C#N)S2(=O)=O | > 100 | > 100 | > 100 | > 100 | > 100 | > 100 | > 100 | > 100 | > 100 | > 100 | > 100 | > 100 | > 100 | > 100 | > 100 | > 100 | – | – | – |
| Cc1nn(C(=O)c2ccncc2)c2c1C(c1ccccc1)SC(N)=N2 (configuration not stated) | > 10 | > 10 | > 10 | > 10 | > 10 | > 10 | > 10 | > 10 | – | > 10 | > 10 | > 10 | > 10 | > 10 | > 10 | > 10 | > 10 | > 10 | – |
| O=C(C[n+]1ccccc1)N/N=C(\Cc1nc2ccc([N+](=O)[O-])cc2[nH]c1=O)C(=O)Nc1cc(Cl)c(Cl)cc1Cl | > 100 | > 100 | > 100 | > 100 | > 100 | > 100 | > 100 | > 100 | > 100 | > 100 | – | > 100 | > 100 | > 100 | > 100 | > 100 | > 100 | > 100 | > 100 |
| C/C(=N\Nc1nc2ccccc2n1C)c1cnccn1 | > 100 | > 100 | > 100 | – | 10 | > 100 | > 100 | > 100 | > 100 | > 100 | > 100 | > 100 | > 25 | > 42.5 | > 100 | > 35.8 | > 100 | – | > 63.3 |
| Cc1ccc(C(=O)Nc2ccc(S(=O)(=O)O)c3cc(S(=O)(=O)O)cc(S(=O)(=O)O)c23)cc1NC(=S)Nc1cc(C(=O)Nc2ccc(S(=O)(=O)O)c3cc(S(=O)(=O)O)cc(S(=O)(=O)O)c23)ccc1C | > 75 | > 75 | > 75 | > 75 | > 75 | > 75 | – | > 75 | > 75 | > 75 | > 75 | > 75 | > 75 | > 75 | > 75 | > 75 | > 75 | – | > 75 |
| CCN(CC)C(=S)SS(=O)(=O)c1ccc(Cl)cc1 | 82 | 37 | > 100 | – | 30.9 | 30.4 | 43.5 | 48.5 | 35.7 | – | > 100 | > 100 | 58.8 | 32.1 | – | 0.0995 | 27.5 | > 100 | > 100 |
| O=C(CCCNc1nc(-c2ccccc2)cs1)c1cccs1 | – | > 100 | > 100 | > 100 | > 100 | > 100 | > 100 | > 100 | > 100 | > 100 | > 100 | > 100 | > 100 | > 100 | > 100 | > 100 | > 100 | > 100 | – |
| CCOC(=O)c1nc2ccccc2nc1Nc1ccc(OC)c(OC)c1 | > 100 | – | > 100 | > 100 | > 100 | > 100 | > 100 | > 100 | > 100 | > 100 | > 100 | > 100 | – | > 100 | > 100 | > 100 | > 100 | > 100 | – |
| O=C(O)Cc1ccc(Oc2nc3ccccc3nc2C(=O)O)cc1 | > 100 | > 100 | > 100 | > 100 | > 100 | > 100 | > 100 | > 100 | > 100 | > 100 | – | > 100 | > 100 | > 100 | – | > 100 | – | > 100 | > 100 |
| CCOC(=O)Cc1csc2[n+]1C(=O)/C(=C\c1cccc(Cl)c1Cl)S2 | 46.3 | 56.6 | 45.8 | 50.6 | 30.6 | 64.6 | 47.1 | > 100 | 27.1 | > 100 | 56.6 | 45.5 | 90.1 | 41.2 | 33.5 | 41.3 | – | 89.7 | – |
| O=C1NC(N2CCCCC2)=N/C1=C\c1cccs1 | > 100 | > 100 | – | > 100 | – | > 100 | > 100 | > 100 | > 100 | > 100 | > 100 | > 100 | > 100 | > 100 | > 100 | > 100 | > 100 | > 100 | – |
| CCN(CC)CCN1C(=O)c2c(c(-c3ccccc3)c3ccccc3c2-c2ccccc2)C1=O | – | > 100 | > 100 | > 100 | > 100 | > 100 | > 100 | > 100 | – | > 100 | > 100 | > 100 | > 100 | > 100 | > 100 | > 100 | > 100 | > 100 | > 100 |
